Format in all cases: cell-based
Assay [1] concerns NCI-H524 human small cell lung cancer cells. The experiment in a line: H524 assay: inhibition of cell proliferation (CellTiter Glo). To be noted: 2 h treatment, washout, additional 70 h incubation. The essentials:
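Proliferation was measured by CellTiter Glo 70 h after a washout that followed a 2 h pulse of NDC. Doses were an 11-point, two-fold dilution series from 1 uM. IC50 was fitted with a four-parameter model to luminescence-based % inhibition relative to control cells.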

Assay [2] addresses T1, human somatostatin receptor subtype 2 (Homo sapiens, UniProt P30874).
T1 construct: expressed in transfected cells
Nature of the assay: Functional assay for SSTR2 agonists (HTRF cAMP). The conditions noted are these: CHO-K1 cells stably expressing human SST2; NKH477-stimulated cAMP; 20 min at 37 C; read-out: hSST2 cAMP Avg EC50. In short, it runs like this:
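Agonist activity read as fall in intracellular cAMP: HTRF 665/620 nm ratio regressed to a cAMP standard curve, EC50 fitted. Stable human SSTR2 CHO-K1 cells exposed 20 min at 37 °C to compound, final concentrations typically 0-10,000 nM.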
In general terms: Time-resolved FRET reads energy transfer from a long-lived donor to a nearby acceptor.

A further assay deals with T2, SST2 (Homo sapiens, UniProt P30874).
T2 construct: host or cells: PathHunter CHO-K1 SST2 cells
Nature of the assay: PathHunter CHO-K1 SST2 Internalization Assay. The conditions noted are these: PathHunter CHO-K1 SST2 cells; 90 min at 37 C; luminescence; read-out: Internalization EC50. In short, it runs like this: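 Four-parameter nonlinear fits of background-corrected luminescence (duplicate means) gave IC50s. NDCs were serially diluted 1:3 over 11 points from a 10 uM final top concentration and incubated 90 min at 37 C with human SST2 CHO-K1 cells plated 48 h earlier at 2500/well. Beta-Glo read-out developed 60 min at RT.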

Each structure is given as a SMILES string. *1 amine or outer side, *2 acyl side, *3 side chain or, on linkers, in order; H or OH if unused. Where a SMILES comes first, the peptide text is derived from it. [ ]: non-standard residue; d: D form. The star is where a group is joined. X1 = Cc1cc(F)cc(-c2cnc(*)c(-c3nc4ccc(Cl)cc4[nH]3)c2N2CCC(N)CC2)c1; Dolaproine = CO[C@@H]([C@@H]1CCCN1)[C@@H](C)C(=O)O; Dil = CC[C@H](C)[C@H](NC)[C@@H](CC(=O)O)OC; PABC = O=C(OCc1ccc(N[*:1])cc1)[*:2]; X2 = C[C@@H](N*)[C@@H](O)c1ccccc1; Cit = NC(=O)NCCC[C@H](N)C(=O)O; PEG4 = NCCOCCOCCOCCOCCC(=O)O; NMeV = CN[C@H](C(=O)O)C(C)C; βAla = NCCC(=O)O

T2 sequence (P30874 whole entry): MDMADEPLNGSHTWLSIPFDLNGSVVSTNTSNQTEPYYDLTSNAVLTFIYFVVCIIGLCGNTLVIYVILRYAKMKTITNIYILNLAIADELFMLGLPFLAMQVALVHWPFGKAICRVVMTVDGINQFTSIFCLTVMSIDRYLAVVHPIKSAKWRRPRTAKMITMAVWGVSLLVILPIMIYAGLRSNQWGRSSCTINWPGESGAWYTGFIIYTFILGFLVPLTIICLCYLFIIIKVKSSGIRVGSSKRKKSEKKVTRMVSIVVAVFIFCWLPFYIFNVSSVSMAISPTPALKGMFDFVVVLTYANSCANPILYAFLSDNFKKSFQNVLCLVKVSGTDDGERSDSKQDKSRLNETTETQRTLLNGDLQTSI
T1 sequence (P30874 whole entry): as above

With `CC[C@H](C)[C@@H]([C@@H](CC(=O)N1CCC[C@H]1[C@H](OC)[C@@H](C)C(=O)N[C@H](C)[C@@H](O)c1ccccc1)OC)N(C)C(=O)[C@@H](NC(=O)[C@H](C(C)C)N(C)C(=O)OCc1ccc(NC(=O)[C@H](C)NC(=O)[C@@H](NC(=O)CCOCCC(=O)NCCNc2ncc(-c3cc(C)cc(F)c3)c(N3CCC(N)CC3)c2-c2nc3cc(F)cc(OC)c3[nH]2)C(C)C)c(O[C@@H]2O[C@H](C(=O)O)[C@@H](O)[C@H](O)[C@H]2O)c1)C(C)C` [Compound 140], the EC50 in assay [1] was 6.6 nM; in assay [2], 0.15 nM; at SST2, 2.9 nM.
For `CC[C@H](C)[C@@H]([C@@H](CC(=O)N1CCC[C@H]1[C@H](OC)[C@@H](C)C(=O)N[C@H](C)[C@@H](O)c1ccccc1)OC)N(C)C(=O)[C@@H](NC(=O)[C@H](C(C)C)N(C)C(=O)OCc1ccc(NC(=O)[C@H](CCCNC(N)=O)NC(=O)[C@@H](NS(=O)(=O)C[C@H](C)NC(=O)CCOCCC(=O)NCCNc2ncc(-c3cc(C)cc(F)c3)c(N3CCC(N)CC3)c2-c2nc3ccc(Cl)cc3[nH]2)C(C)C)c(O[C@@H]2O[C@H](C(=O)N(C)CC(=O)O)[C@@H](O)[C@H](O)[C@H]2O)c1)C(C)C` [Compound 220], the EC50 in assay [1] turned out to be 7.6 nM; in assay [2], 0.077 nM; on SST2 it was 3.1 nM.
Take `CC[C@H](C)[C@@H]([C@@H](CC(=O)N1CCCC1[C@H](OC)[C@@H](C)C(=O)N[C@H](C)[C@@H](O)c1ccccc1)OC)N(C)C(=O)[C@@H](NC(=O)[C@H](C(C)C)N(C)C(=O)OCc1ccc(O[C@@H]2O[C@H](C(=O)O)[C@@H](O)[C@H](O)[C@H]2O)c(NC(=O)[C@H](C)NC(=O)[C@@H](NC(=O)CCOCCC(=O)NCCNc2ncc(-c3cc(C)cc(F)c3)c(N3CCC(N)CC3)c2-c2nc3ccc(Cl)cc3[nH]2)C(C)C)c1)C(C)C` (stereo partly drawn) [Compound 249]: the EC50 came out at 9.8 nM in assay [1], 0.086 nM in assay [2] and 4.5 nM on SST2.
Take `CC[C@H](C)[C@@H]([C@@H](CC(=O)N1CCC[C@H]1[C@H](OC)[C@@H](C)C(=O)N[C@H](C)[C@@H](O)c1ccccc1)OC)N(C)C(=O)[C@@H](NC(=O)[C@H](C(C)C)N(C)C(=O)OCc1ccc(NC(=O)[C@H](CCCNC(N)=O)NC(=O)[C@@H](NC(=O)[C@H](CCCO)NC(=O)CCOCCC(=O)NCCNc2ncc(-c3cc(C)cc(F)c3)c(N3CCC(N)CC3)c2-c2nc3cc(Cl)ccc3[nH]2)C(C)C)c(O[C@@H]2O[C@H](C(=O)NCC(=O)O)[C@@H](O)[C@H](O)[C@H]2O)c1)C(C)C` [Compound 213]: the EC50 turned out to be 9.2 nM in assay [1], 0.089 nM in assay [2] and 3.4 nM on SST2.
On to `CC[C@H](C)[C@@H]([C@@H](CC(=O)N1CCC[C@H]1[C@H](OC)[C@@H](C)C(=O)N[C@H](C)[C@@H](O)c1ccccc1)OC)N(C)C(=O)[C@@H](NC(=O)[C@H](C(C)C)N(C)C(=O)OCc1ccc(NC(=O)[C@H](CCCNC(N)=O)NC(=O)[C@@H](NC(=O)CCOCCC(=O)NCCNc2ncc(-c3cc(C)cc(F)c3)c(N3CCC(N)CC3)c2-c2nc3ccc(Cl)cc3[nH]2)C(C)C)c(O[C@@H]2O[C@H](C(=O)NCCOCCC(=O)O)[C@@H](O)[C@H](O)[C@H]2O)c1)C(C)C` [Compound 230], for which the EC50 in assay [1] turned out to be 14 nM; in assay [2], 0.095 nM; at SST2 it was 4.2 nM.
As for `CC[C@H](C)[C@@H]([C@@H](CC(=O)N1CCC[C@H]1[C@H](OC)[C@@H](C)C(=O)N[C@H](C)[C@@H](O)c1ccccc1)OC)N(C)C(=O)[C@@H](NC(=O)[C@H](C(C)C)N(C)C(=O)OCc1ccc(NC(=O)[C@H](CCCNC(N)=O)NC(=O)[C@@H](NC(=O)c2cc(NC(=O)CCCC(=O)N(C)CC(=O)NCCNc3ncc(-c4cc(C)cc(F)c4)c(N4CCC(N)CC4)c3-c3nc4ccc(Cl)cc4[nH]3)cc(C(=O)NC[C@@H](N)C(=O)O)c2)C(C)C)cc1)C(C)C` [Compound 171], the EC50 came to 14 nM in assay [1], 0.33 nM in assay [2] and 8.3 nM at SST2.
`CC[C@H](C)[C@@H]([C@@H](CC(=O)N1CCC[C@H]1[C@H](OC)[C@@H](C)C(=O)N[C@H](C)[C@@H](O)c1ccccc1)OC)N(C)C(=O)[C@@H](NC(=O)[C@H](C(C)C)N(C)C(=O)OCc1ccc(NC(=O)[C@H](CCCNC(N)=O)NC(=O)[C@@H](NC(=O)c2cc(NCCCCCC(=O)NCCNc3ncc(-c4cc(C)cc(F)c4)c(N4CCC(N)CC4)c3-c3nc4ccc(Cl)cc4[nH]3)cc(C(=O)NCC(=O)O)c2)C(C)C)cc1)C(C)C` [Compound 154]: the EC50 in assay [1] is 39 nM; in assay [2] it was 1.6 nM; on SST2, 7.7 nM.
For the molecule `CC[C@H](C)[C@@H]([C@@H](CC(=O)N1CCC[C@H]1[C@H](OC)[C@@H](C)C(=O)N[C@H](C)[C@@H](O)c1ccccc1)OC)N(C)C(=O)[C@@H](NC(=O)[C@H](C(C)C)N(C)C(=O)OCc1ccc(NC(=O)[C@H](CCCNC(N)=O)NC(=O)[C@@H](NC(=O)c2cc(NCCCCCC(=O)N(C)CC(=O)NCCNc3ncc(-c4cc(C)cc(F)c4)c(N4CCC(N)CC4)c3-c3nc4ccc(F)cc4[nH]3)cc(C(=O)NCC(=O)O)c2)C(C)C)cc1)C(C)C` [Compound 168], the EC50 in assay [1] amounted to 34 nM; in assay [2], 0.17 nM; on SST2, 5.8 nM.
As for `CC[C@H](C)[C@@H]([C@@H](CC(=O)N1CCC[C@H]1[C@H](OC)[C@@H](C)C(=O)N[C@H](C)[C@@H](O)c1ccccc1)OC)N(C)C(=O)[C@@H](NC(=O)[C@H](C(C)C)N(C)C(=O)OCc1ccc(NC(=O)[C@H](CCCNC(N)=O)NC(=O)[C@@H](NC(=O)CCOCCC(=O)NCCNc2ncc(-c3cc(C)cc(F)c3)c(N3CCC(N)CC3)c2-c2nc3ccc(Cl)cc3[nH]2)C(C)C)c(O[C@@H]2O[C@H](C(=O)N(C)C)[C@@H](O)[C@H](O)[C@H]2O)c1)C(C)C` [Compound 217], the figures for the EC50 (in assay [1]; in assay [2]; at SST2) were 6.9 nM, 0.093 nM and 6 nM, respectively.
In the same order, the values of `CC[C@H](C)[C@@H]([C@@H](CC(=O)N1CCC[C@H]1[C@H](OC)[C@@H](C)C(=O)N[C@H](C)[C@@H](O)c1ccccc1)OC)N(C)C(=O)[C@@H](NC(=O)[C@H](C(C)C)N(C)C(=O)OCc1ccc(NC(=O)[C@H](CCCNC(N)=O)NC(=O)[C@@H](NC(=O)CCOCCC(=O)NCCNc2ncc(-c3cc(C)cc(F)c3)c(N3CCC(N)CC3)c2-c2nc3ccc(Cl)cc3[nH]2)C(C)C)c(O[C@@H]2O[C@H](C(=O)NCCC(=O)N[C@@H](CCCCNC(=O)CCCCc3ccc(I)cc3)C(=O)O)[C@@H](O)[C@H](O)[C@H]2O)c1)C(C)C` [Compound 55] are 11 nM, 0.25 nM and 2 nM.
With `CC[C@H](C)[C@@H]([C@@H](CC(=O)N1CCC[C@H]1[C@H](OC)[C@@H](C)C(=O)N[C@H](C)[C@@H](O)c1ccccc1)OC)N(C)C(=O)[C@@H](NC(=O)[C@H](C(C)C)N(C)C(=O)OCc1ccc(NC(=O)[C@H](CCCNC(N)=O)NC(=O)[C@@H](NC(=O)CCOCCOCCOCCOCCNC(=O)CCNc2ncc(-c3cc(C)cc(F)c3)c(N3CCC(N)CC3)c2-c2nc3ccc(Cl)cc3[nH]2)C(C)C)cc1)C(C)C` [Compound 196] ({X1-βAla-PEG4}-V[Cit][PABC][NMeV]V[Dil][Dolaproine]-X2), the EC50 in assay [1] was determined as 28 nM; in assay [2], 0.29 nM; at SST2, 8.6 nM.

As a reminder, the EC50 is the concentration giving half of the maximal effect.
